Source: US20110300246A1, “Herbal Extracts for Treatment of Diabetic Complications and Oxidative Stress” (priority 2010, published 2011)

Key:
STZ-diabetic rats [1] = experiment: AGE levels in the kidney cortex of STZ-diabetic rats; format: in vivo, rat; conditions: 12 weeks, mean ± SD, n=8
Experimental: (§1) Male Sprague-Dawley male rats, weighing 200-250 g, aged 8-10 weeks, were used. Diabetes was induced by administration of streptozotocin (STZ, Sigma-Aldrich, USA) in 0.1 mol/L sodium citrate (pH 4.5) at a dose of 55 mg/kg intraperitoneally. After 48 hours injection, blood glucose levels of the animals were examined using glucose meter. The induction of diabetes was confirmed when the blood glucose level was greater than 300 mg/dl. Animals were maintained in diabetic conditions for 2 weeks without any treatment and blood glucose was determined every week to ensure the subsistence of diabetes. Animals with uncertain blood glucose levels or blood glucose exceeding 600 mg/dl were excluded from the study.
(§2) HEM was suspended in 1% carboxymethylcellulose (CMC) before use. Aminogunidine was dissolved in water first and then added into 1% CMC before use. […] The diabetes-induced and the normal control groups consisted of 8 animals of each. The initial body weights and blood glucose levels of the diabetic animals were similar among the three groups. […] The normal control group and the diabetic control group were administered with equivalent volume of CMC daily for 12 weeks. The standard rat diet and water were available ad libitum throughout the entire treatment period. […]

[2] = system: STZ-induced diabetic rats; experiment: Immunohistochemical staining for insulin in pancreatic islets of STZ-diabetic rats; format: in vivo, rat; conditions: 12 weeks treatment, FIG. 2
Experimental: as §1, §2

STZ-diabetic rats [3] = experiment: Renal oxidative stress (SOD activity, MDA) in STZ-diabetic rats; format: in vivo, rat; conditions: renal cortical tissue, 12 weeks, mean ± SD, n=8
Experimental: as §1
(§3) HEM was suspended in 1% carboxymethylcellulose (CMC) before use. Aminogunidine was dissolved in water first and then added into 1% CMC before use. […] The diabetes-induced and the normal control groups consisted of 8 animals of each. […]
For measurements of SOD activity and MDA contents, the renal cortical tissues were homogenized in a buffer solution (0.25 M sucrose, 0.5 mM EDTA, 50 mM HEPES, protease inhibitors) on ice and centrifuged at 4° C. at 12,000 rpm for 20 min. The supernatants were collected and analyzed with corresponding assay kits (Nanjing Jiancheng Shengwu Yanjiu Suo, Nanjing, China) according to the manufacturer's instructions, […]

[4] = system: STZ-induced diabetic rats; experiment: AGE-fluorescence in the pancreas of STZ-diabetic rats; format: in vivo, rat; conditions: 12 weeks treatment, FIG. 3
Experimental: as §1, with “Animals with uncertain blood glucose levels or blood glucose exceeding 600 mg/dl were excluded from the study.” left out
Minced pancreatic tissue was delipidated with chloroform and methanol (2:1,v/v) overnight. […] The amounts of AGEs in these alkali-soluble samples were determined by measuring the fluorescence at an emission wavelength of 440 nm and an excitation wavelength at 370 nm using a fluorescence Spectrophotometer. A native bovine serum albumin (BSA) preparation (1 mg/ml of 0.1 N NaOH) was used as a standard, and its fluorescence intensity was defined as one arbitrary unit (AU). The fluorescence values of samples were measured at a protein concentration of 1 mg/ml and expressed in arbitrary unit (AU) compared with a native BSA preparation. Sample protein concentrations were determined using Bradford method.

STZ-diabetic rats [5] = experiment: 24-hr urinary albumin excretion in STZ-diabetic rats; format: in vivo, rat; conditions: 12 weeks, P<0.01, FIG. 8
Experimental: as §1
as §3, with “each. The initial body weights and blood glucose levels of the diabetic animals were similar among the three groups.” for “each.”
Development of albuminuria is a cardinal manifestation of glomerular injury and a pathological factor in the progression of renal dysfunction. […] The levels of urinary albumin were quantified using a commercial assay kit (Guangzhou WhiJa Technology, Inc. Guangzhou, China), according to the manufacturer's instructions.

STZ-diabetic rats [6] = experiment: Fluorescent AGEs and CML-AGE in the descending aorta of STZ-diabetic rats; format: in vivo, rat; conditions: 12 weeks, FIG. 6 and FIG. 7
Experimental: as §1, §2

[7] = system: bovine serum albumin (BSA)-AGEs formation; experiment: Glucose and methylglyoxal induced BSA-AGEs formation in vitro (fluorescence); format: biochemical; conditions: BSA + 2 mM methylglyoxal + 200 mM glucose, 37° C., 7 days
Experimental: Glucose and Methylglyoxal induced bovine serum albumin (BSA)-AGEs formation is used to test the inhibitory effects of the inventive single herbal extract and mixed herbal extracts on the formation of AGEs in vitro.
Methods: As a protein source, BSA (Sigma-Aldrich, St. Louis, Mo., USA) was dissolved in 50 mM phosphate buffer (pH 7.4) to a concentration of 10 mg/ml. As a sugar source, a mixture of 2 mM methylglyoxal and 200 mM glucose (sigma-Aldrich, St. Louis, Mo., USA) was used. This sugar mixture was added to the prepared BSA solution for use in tests. […] Aminoguanidine (AG), a positive control drug, was tested in the same manner except that AG was dissolved in distilled water. As a negative control group, a culture consisting of BSA, the sugar mixture and 10% Tween80 was cultured. As blanks to the control and test groups, the materials for the test group and the materials for the control group were used after preparation without incubation. Five samples for each group were used to reduce errors to the lowest possible extent. After 7 days incubation, the amounts of AGEs in test samples were determined by measuring the fluorescence at an emission wavelength of 440 nm and an excitation wavelength at 370 nm using a fluorescence Spectrophotometer. The inhibition (%) of the formation of AGEs was calculated according to the following equation:
Inhibition (%) of production=100−[(fluorescent intensity of test group−fluorescent intensity of blank to test group)/(fluorescent intensity of control group−fluorescent intensity of blank to control group)]×100.

STZ-diabetic rats [8] = experiment: Body weight gain and general well-being in STZ-diabetic rats, 12 weeks treatment; format: in vivo, rat
Experimental: as §1
as §2, with “weeks.” for “weeks. The standard rat diet and water were available ad libitum throughout the entire treatment period.”
The general behavioral status of the animals (i.e. locomotor activity, alertness to environmental changes) was observed every day, and the body weight and food intake were measured weekly.

N=C(N)NN [Aminoguanidine, aminoguanidine]
AGE-fluorescence in the kidney cortex (STZ-diabetic rats [1]): 3.4 ± 0.5 AU/mg protein
CML-AGE in the kidney cortex (STZ-diabetic rats [1]): 262.8 ± 55.4 ng/mg protein
insulin immunostaining in the pancreatic islets [2]: no evident effect
Renal MDA (STZ-diabetic rats [3]): 8.82 ± 1.92 μM/mg protein
Renal SOD activity (STZ-diabetic rats [3]): 1.78 ± 0.42 Unit/mg protein
pancreatic level of AGEs (fluorescence) [4]: effectively lowered
reduction of 24-hr urinary albumin excretion compared with STZ-diabetic control group (STZ-diabetic rats [5]): 37.3%
accumulation of AGEs (fluorescent AGEs and CML-AGE) in the descending aorta (STZ-diabetic rats [6]): effectively reduced
Inhibition (%) of the formation of AGEs ([7]; 12.5 mcg/ml): 19.6 ± 3.6%
Inhibition (%) of the formation of AGEs ([7]; 25 mcg/ml): 31.7 ± 3.5%
Inhibition (%) of the formation of AGEs ([7]; 50 mcg/ml): 44.8 ± 2.9%
Inhibition (%) of the formation of AGEs ([7]; 100 mcg/ml): 69.9 ± 3.5%
body weight increase by the end of the experiment (STZ-diabetic rats [8]; 12 weeks oral treatment): 44.0 g
Body weight (g) (after treatment) (STZ-diabetic rats [8]; oral gavage daily 12 weeks, HEM 500 mg/kg, AG 50 mg/kg, mean ± SD, n=8): 258.6 ± 8.1 g
